The values below come from patent US11318110B2, “Pharmaceutical composition for reducing local fat and uses thereof” (Caliway Biopharmaceuticals Co., Ltd., priority 2015, dated 2022).

The test system of series [1] is rat somatic cells except adipocytes. In words: Cytotoxicity test by MTT assay (Experiment 10-1). Format: cell-based. To be noted: 50 ppm. An excerpt: Determine if 50 ppm of caffeine and L-carnitine have toxicity to cells other than adipocytes by MTT assay. Only if the drug is deemed non-toxic will lipolysis test be proceeded.
For orientation: Tetrazolium dyes change colour on reduction, which living cells bring about.

Series [2] relates to mature adipocytes (differentiated 3T3-L1 cells). In words: Apoptosis of mature adipocytes, annexin V/PI flow cytometry (Experiment 10-2). In kind it is cell-based. The conditions noted are these: 50 ppm total drug (complexes: 20 ppm curcumin + 30 ppm hydrophilic drug), 24 hours; sterile water control 0.8±0.4%. The text has this: The curcumin cell culture medium: same as the preparation of the curcumin cell culture medium in Experiment 8-2. […] Caffeine (purchased from Sigma-Aldrich) was mixed with an appropriate amount of sterile water to obtain a caffeine solution. The caffeine solution was mixed with a cell culture medium to prepare the caffeine cell culture medium containing 50 ppm of caffeine. Wherein, the volume ratio of the caffeine cell culture medium and the cell culture medium was 1:1000. The L-carnitine cell culture medium: L-carnitine (purchased from Sigma-Aldrich) was mixed with an appropriate amount of sterile water to obtain a L-carnitine solution. The L-carnitine solution was mixed with a cell culture medium to prepare the caffeine cell culture medium containing 50 ppm of L-carnitine. Wherein, the volume ratio of the L-carnitine cell culture medium and the cell culture medium was 1:1000. The curcumin-caffeine complex cell culture medium: Curcumin and caffeine were mixed with an appropriate amount of sterile water to prepare a curcumin-caffeine complex solution. […] Wherein, the concentration of curcumin was 20 ppm, the concentration of caffeine was 30 ppm, and the volume ratio of the curcumin-caffeine complex solution and the cell culture medium was 1:1000. The curcumin-L-carnitine complex cell culture medium: Curcumin and L-carnitine were mixed with an appropriate amount of sterile water to prepare a curcumin-L-carnitine complex solution. […] Wherein, the concentration of curcumin was 20 ppm, the concentration of L-carnitine was 30 ppm, and the volume ratio of the curcumin-L-carnitine complex solution and the cell culture medium was 1:1000. […] Annexin V protein (purchased from eBioscience) and propidium iodide (PI; purchased from eBioscience) were mixed with the cells in each group for a period of time, and then the percentage of cells labeled by annexin V protein and PI in each group was analyzed by flow cytometry to assess the percentage of mature adipocytes undergoing apoptosis.

The test system of series [3] is lower inguinal subcutaneous fat of rats. In words: Administered dosage of curcumin-resveratrol complex composition, localized subcutaneous fat of rats (Experiment 7-5). The conditions noted are these: 0.04 μg/kg injected on days 1-4; 14-day experiment; high-fat diet control 100±15.2%. In kind it is in vivo. On the procedure: LIPO-202 is a local lipolysis injection formulation currently undergoing clinical trials, and its main ingredient is salmeterol xinafonate. • (i) 1 mg of salmeterol xinafonate (purchased from Sigma-Aldrich) was mixed with an appropriate amount of methanol to a total volume of 1 mL to obtain a 1 mg/mL stock solution. • (ii) The stock solution was 10-fold serial diluted with sterile water to prepare a salmeterol xinafonate solution of a final concentration of 0.01 μg/mL, which is the LIPO-202 solution used in this experiment. same as the preparation of the curcumin-resveratrol complex solution comprising ELP described in Experiment 7-2. […] The rats were fed in the same manner described in Experiment 2. […] The LIPO-202 solution was injected to the lower inguinal subcutaneous fat layer of rats in the LIPO-202 group. […] The 1 mg/mL complex formula group: […] The 5 mg/mL complex formula group: The curcumin-resveratrol complex pharmaceutical composition was injected to the lower inguinal subcutaneous fat layer of rats in the 5 mg/mL complex formula group. […] The 10 mg/mL complex formula group: […] The 20 mg/mL complex formula group: […] Rats were injected once a day on day 1, 2, 3, and 4 of the experiment. The rats were fed with high-fat diet for the entire duration of the experiment. The experiment lasted for 14 days, and the rats were euthanized on day 15 by CO2.

Series [4] has as its system mature adipocytes (differentiated 3T3-L1 cells). In words: Apoptosis of mature adipocytes, annexin V/PI flow cytometry (Experiment 8-2). To be noted: 50 ppm total drug (complexes: 20 ppm curcumin + 30 ppm second drug), 24 hours; DMSO control 0.8±0.2%. In kind it is cell-based. The text has this: The curcumin cell culture medium: curcumin was mixed with an appropriate amount of 0.5% DMSO solution to obtain a curcumin solution. The curcumin solution was mixed with a cell culture medium (product name: Dulbecco's Modified Eagle Medium, purchased from Gibco) to prepare the curcumin cell culture medium containing 50 ppm of curcumin, wherein, the volume ratio between the curcumin solution and the cell culture medium was 1:1000. The puerarin cell culture medium: puerarin (purchased from Sigma-Aldrich) was mixed with an appropriate amount of 0.5% DMSO solution to obtain a puerarin solution. The puerarin solution was mixed with a cell culture medium to prepare the puerarin cell culture medium containing 50 ppm of puerarin, wherein, the volume ratio between the puerarin solution and the cell culture medium is 1:1000. The quercetin cell culture medium: quercetin (purchased from Sigma-Aldrich) was mixed with an appropriate amount of 0.5% DMSO solution to obtain a quercetin solution. The quercetin solution was mixed with a cell culture medium to prepare the quercetin cell culture medium containing 50 ppm of quercetin, wherein, the volume ratio between the quercetin solution and the cell culture medium was 1:1000. The synephrine cell culture medium: synephrine (purchased from Sigma-Aldrich) was mixed with an appropriate amount of 0.5% DMSO solution to obtain a synephrine solution. The synephrine solution was mixed with a cell culture medium to prepare the synephrine cell culture medium containing 50 ppm of synephrine, wherein, the volume ratio between the synephrine solution and the cell culture medium was 1:1000. The curcumin-puerarin complex cell culture medium: curcumin and puerarin were mixed with an appropriate amount of 0.5% DMSO solution to obtain a curcumin-puerarin complex solution. […] The curcumin-quercetin complex cell culture medium: curcumin and quercetin were mixed with an appropriate amount of 0.5% DMSO solution to obtain a curcumin-quercetin complex solution. […] Experimental procedure to determine the lipolysis efficacy on mature adipocytes The adipocyte precursors 3T3-L1 cells (purchased from the Food Industry Research and Development Institute, Taiwan; abbreviated as BCRC) were seeded in 12-well plates, such that each well contained 1×10^5 cells. […] Annexin V protein (purchased from eBioscience) and propidium iodide (PI; purchased from eBioscience) were mixed with the cells in each group for a period of time, and then the percentage of cells labeled by annexin V protein and PI in each group was analyzed by flow cytometry to assess the percentage of mature adipocytes undergoing apoptosis. […] The data were presented as mean±SD and analyzed by one-way ANOVA. […]
Background: In flow cytometry, cells or beads pass a laser one at a time.

Series [5] in a line: Dosing frequency of curcumin-resveratrol complex composition, body weight gain of rats (Experiment 7-4). In kind it is in vivo. The conditions noted are these: 10.3 mg/kg on days 1, 3, 5 (total 30.9 mg/kg); control 100.0±11.6%. The protocol: (§1) Preparation of the sodium deoxycholate solution: An appropriate amount of sodium deoxycholate was mixed with sterile water for injection to make the concentration of sodium deoxycholate 2.575 mg/mL. The solution was mixed well to obtain the sodium deoxycholate solution. Wherein, sodium deoxycholate (purchased from Sigma-Aldrich, cat #D6750) is the main ingredient of the local lipolysis injection formulation ATX-101 (brand name: KYBELLA®) in the market.
(§2) Preparation of the curcumin-resveratrol complex pharmaceutical composition: same as the preparation of the curcumin-resveratrol complex solution comprising ELP described in Experiment 7-2. Wherein, the total concentration of curcumin and resveratrol was 5 mg/mL, and the ratio of curcumin to resveratrol was 4:1.
(§3) The rats were randomly assigned into 4 groups, which were a high-fat diet control group, a sodium deoxycholate group, a high-dosing frequency curcumin-resveratrol group (abbreviated as high-dosing frequency group in this experiment), and a low-dosing frequency curcumin-resveratrol group (abbreviated as low-dosing frequency group in this experiment). The rats were fed in the same manner described in Experiment 2.
(§4) The sodium deoxycholate group: The sodium deoxycholate solution was injected to the lower inguinal subcutaneous fat layer of rats in the sodium deoxycholate group. […]

Series [6] has as its system lower inguinal subcutaneous fat of rats. In words: Dosing frequency of curcumin-green tea extract complex composition, localized subcutaneous fat of rats (Experiment 9-2). Format: in vivo. The conditions noted are these: 10.3 mg/kg on days 1, 3, 5 (total 30.9 mg/kg); 20-day experiment; control 100.0±22.6%. The protocol:
(§5) Preparation of the sodium deoxycholate solution: same as the preparation of the sodium deoxycholate solution in Experiment 7-4.
(§6) Preparation of the curcumin-green tea extract complex pharmaceutical composition: 0.8 g of curcumin was mixed with 150˜200 mL of dichloromethane and stirred at 150˜500 rpm to completely dissolve curcumin. 40 g of KOLLIPHOR® ELP (also known as CREMOPHOR® ELP, polyoxyl 35 castor oil, abbreviated as ELP) was added and stirred at 100˜300 rpm to volatilize dichloromethane. Once dichloromethane volatilized completely, normal saline for injection was slowly added to a total volume of 200 mL. Wherein, the normal saline for injection comprised 0.2 g of green tea extract. The solution was mixed well to obtain the curcumin-green tea extract complex solution comprising ELP. Said curcumin-green tea extract complex solution comprising ELP comprised drug-containing micelles, the total concentration of curcumin and green tea was 5 mg/mL, and the weight ratio of curcumin and green tea extract was 4:1
(§7) The rats were randomly assigned into 4 groups, which were a high-fat diet control group, a sodium deoxycholate group, a high-dosing frequency curcumin-green tea extract group (abbreviated as high-dosing frequency group in this experiment), and a low-dosing frequency curcumin-green tea extract group (abbreviated as low-dosing frequency group). […]

The test system is the same in series [7]. In words: Dosing frequency of curcumin-resveratrol complex composition, localized subcutaneous fat of rats (Experiment 7-4). In kind it is in vivo. The conditions noted are these: 10.3 mg/kg on days 1, 3, 5 (total 30.9 mg/kg); 20-day experiment; control 100.0±22.6%. The protocol:
as §1, §2, §3, §4

Series [8] is described as follows: Dosing frequency of curcumin-green tea extract complex composition, body weight gain of rats (Experiment 9-2). Format: in vivo. The conditions noted are these: 10.3 mg/kg on days 1, 3, 5 (total 30.9 mg/kg); control 100.0±11.6%. On the procedure:
as §5, §6, §7

`C[N+](C)(C)C[C@H](O)CC(=O)[O-]` [L-carnitine]: in series [1], the “cytotoxicity (MTT assay)” value is given as “not cytotoxic”. In series [2], the “percentage of apoptotic cells” value came to 1.7±0.5%.
On to `OCc1cc(C(O)CNCCCCCCOCCCCc2ccccc2)ccc1O` (centres unmarked) [LIPO-202, salmeterol xinafonate], for which the “relative weight of the lower inguinal subcutaneous fat” value in series [3] was determined as 97.8±12.8%.
In the case of `Cn1c(=O)c2c(ncn2C)n(C)c1=O` [caffeine], the “cytotoxicity (MTT assay)” value in series [1] is listed as “not cytotoxic”. For the same compound, the “percentage of apoptotic cells” value in series [2] is 2.0±1.7%.
In the case of `COc1cc(/C=C/C(=O)CC(=O)/C=C/c2ccc(O)c(OC)c2)ccc1O` [curcumin], the “percentage of apoptotic cells” value in series [4] and in series [2] was 78.4±5.4% in each case.
For `O=c1c(-c2ccc(O)cc2)coc2c([C@@H]3O[C@H](CO)[C@@H](O)[C@H](O)[C@H]3O)c(O)ccc12` [puerarin], the “percentage of apoptotic cells” value in series [4] is reported as 2.0±1.6%.
On the same count and under the same terms, the same measure for `O=c1c(O)c(-c2ccc(O)c(O)c2)oc2cc(O)cc(O)c12` [quercetin]: 1.8±0.6%; for `CNCC(O)c1ccc(O)cc1` (centres unmarked) [synephrine]: 0.9±0.2%.
On to sodium deoxycholate, for which the relative weight gain in series [5] and in series [8] was 100.2±12.6% throughout. In addition, the “relative weight of the lower inguinal subcutaneous fat” value in series [6] and in series [7] was 88.8±16.7% each time.
